Non-standard residues stand in square brackets, D forms with d. Residues, ends and D or L forms follow the SMILES beside them. *: point of attachment. Benzoyl(4-OPh) = O=C(c1ccc(Oc2ccccc2)cc1)*; Lys(Et2) = CCN(CC)CCCC[C@H](N)C(=O)O; d(aIle) = CC[C@H](C)[C@@H](N)C(=O)O; Gly(cPent) = N[C@H](C(=O)O)C1CCCC1; Cbz = O=C(OCc1ccccc1)*; NH(propargyl) = C#CCN*; CH2F = FC*
Legend:
Peregrin (Homo sapiens) = molecular target: T1, Peregrin (Homo sapiens) (UniProt P55201); details: Compound concentration 20.0 uM
T1 sequence (whole entry): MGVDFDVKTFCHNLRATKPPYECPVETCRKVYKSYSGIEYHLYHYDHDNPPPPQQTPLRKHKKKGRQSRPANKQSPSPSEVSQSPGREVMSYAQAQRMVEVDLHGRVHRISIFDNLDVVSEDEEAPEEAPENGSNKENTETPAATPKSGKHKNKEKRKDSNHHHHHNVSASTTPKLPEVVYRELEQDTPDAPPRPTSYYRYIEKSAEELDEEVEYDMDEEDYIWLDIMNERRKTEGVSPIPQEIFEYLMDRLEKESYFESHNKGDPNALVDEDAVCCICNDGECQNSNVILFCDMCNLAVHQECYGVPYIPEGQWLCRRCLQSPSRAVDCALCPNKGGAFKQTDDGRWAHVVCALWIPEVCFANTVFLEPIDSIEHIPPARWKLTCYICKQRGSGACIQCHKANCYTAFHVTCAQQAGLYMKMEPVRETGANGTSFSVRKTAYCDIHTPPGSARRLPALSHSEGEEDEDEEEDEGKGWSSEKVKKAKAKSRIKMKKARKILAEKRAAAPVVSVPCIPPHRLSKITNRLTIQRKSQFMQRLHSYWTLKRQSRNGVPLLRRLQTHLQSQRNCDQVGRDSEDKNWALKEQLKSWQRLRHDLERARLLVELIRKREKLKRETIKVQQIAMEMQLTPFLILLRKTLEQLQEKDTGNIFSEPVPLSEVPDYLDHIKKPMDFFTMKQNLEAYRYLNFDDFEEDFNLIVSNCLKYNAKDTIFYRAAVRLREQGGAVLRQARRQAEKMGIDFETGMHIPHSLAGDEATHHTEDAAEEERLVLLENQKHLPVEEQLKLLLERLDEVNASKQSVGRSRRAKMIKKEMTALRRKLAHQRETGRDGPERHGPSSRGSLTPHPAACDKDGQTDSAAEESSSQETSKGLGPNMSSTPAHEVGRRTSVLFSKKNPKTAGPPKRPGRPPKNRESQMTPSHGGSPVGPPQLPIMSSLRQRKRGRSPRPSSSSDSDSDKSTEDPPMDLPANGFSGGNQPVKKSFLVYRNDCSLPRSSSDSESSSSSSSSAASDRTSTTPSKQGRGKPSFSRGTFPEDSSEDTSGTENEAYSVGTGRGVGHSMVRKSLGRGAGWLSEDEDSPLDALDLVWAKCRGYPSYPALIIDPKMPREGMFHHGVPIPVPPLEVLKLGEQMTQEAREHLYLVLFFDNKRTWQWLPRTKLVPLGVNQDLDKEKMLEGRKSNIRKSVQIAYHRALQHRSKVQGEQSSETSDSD

[1] = molecular target: Fibroblast growth factor receptor 2 (Homo sapiens) (UniProt P21802); details: Compound concentration 20.0 uM
Sequence of Fibroblast growth factor receptor 2 (Homo sapiens) (P21802 22-821 limits assumed): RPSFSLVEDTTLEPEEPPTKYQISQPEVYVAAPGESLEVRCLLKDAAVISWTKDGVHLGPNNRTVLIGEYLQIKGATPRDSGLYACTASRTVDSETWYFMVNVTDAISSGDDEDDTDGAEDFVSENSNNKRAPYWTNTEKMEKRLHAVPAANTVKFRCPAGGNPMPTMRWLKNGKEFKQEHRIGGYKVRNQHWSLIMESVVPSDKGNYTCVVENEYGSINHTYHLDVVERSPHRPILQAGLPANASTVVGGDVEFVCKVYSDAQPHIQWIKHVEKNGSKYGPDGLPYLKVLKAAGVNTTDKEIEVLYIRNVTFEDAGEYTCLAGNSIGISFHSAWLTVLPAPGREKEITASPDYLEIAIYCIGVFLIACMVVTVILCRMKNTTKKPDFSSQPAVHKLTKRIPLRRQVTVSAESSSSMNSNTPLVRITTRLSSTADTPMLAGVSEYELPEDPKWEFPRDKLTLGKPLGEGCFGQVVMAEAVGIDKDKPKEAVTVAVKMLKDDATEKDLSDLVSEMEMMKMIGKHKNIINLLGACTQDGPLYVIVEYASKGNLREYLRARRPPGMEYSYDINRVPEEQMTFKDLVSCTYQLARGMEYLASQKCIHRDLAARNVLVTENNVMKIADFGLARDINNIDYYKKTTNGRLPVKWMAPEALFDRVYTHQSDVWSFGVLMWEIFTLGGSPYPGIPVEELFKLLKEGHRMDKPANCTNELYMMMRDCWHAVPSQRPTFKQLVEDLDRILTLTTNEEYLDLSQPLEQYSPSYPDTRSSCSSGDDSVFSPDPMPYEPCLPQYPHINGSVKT
Description: Thermal Shift Assay. Domain: start/stop: T457-E768

Row | SMILES | ΔTm (Peregrin (Homo sapiens)) | ΔTm [1]
1 | CC1C(C#N)=C(N)OC2=C1C(=O)CC(c1cccc3ccccc13)C2 (centres undefined) | 1.86 °C | -1.52 °C
2 | COc1cc2c(NC3CCN(C)CC3)cc(-c3ccc(C)o3)nc2cc1OCCCN1CCCC1 | -0.96 °C | 0.85 °C
3 | CS(=O)(=O)c1ncn2c(NCc3c(F)ccc4c3CCO4)ncc(-c3ccc(C4CC4)nc3)c12 | -0.81 °C | -0.76 °C
4 | COC(=O)CC(NC(=O)C(C)NC(=O)C(NC(=O)C(CC(=O)OC)NC(=O)C(NC(=O)OCc1ccccc1)C(C)C)C(C)C)C(=O)CF (centres undefined) (Cbz-VD(OMe)VAD(OMe)-CH2F; configuration not given here) | 2.28 °C | -0.48 °C
5 | CC(C)(C)c1ccc(S(=O)(=O)NCc2ccc(C(=O)Nc3cccnc3)cc2)cc1 | -0.61 °C | -0.54 °C
6 | FC(F)(F)Cn1cc(-c2ccncc2)c(-c2ccc(OCc3ccc4ccccc4n3)cc2)n1 | 0.9 °C | 0.04 °C
7 | CC(=O)C(=Cc1cc(O)c(O)c([N+](=O)[O-])c1)C(C)=O | 0.33 °C | -0.23 °C
8 | Nc1ccccc1NC(=O)CCCCCC(=O)Nc1ccccc1 | -1.41 °C | 0.58 °C
9 | Cc1cc(C)c(CNC(=O)c2cc(-c3ccc(N4CCN(C)CC4)nc3)cc3c2c(C)cn3C(C)C)c(=O)[nH]1 | -1.27 °C | 0.85 °C
10 | CCOc1ccc(S(=O)(=O)Nc2ccc(Cl)cc2C#Cc2cnc(C(=O)O)cc2OC)c2ncccc12 | 0 °C | 0.19 °C
11 | Nc1ccccc1NC(=O)c1ccc(CNC(=O)OCc2cccnc2)cc1 | -0.57 °C | 0.41 °C
12 | O=C(O)C1=CCCN(CCOC(c2ccc(C(F)(F)F)cc2)c2ccc(C(F)(F)F)cc2)C1 | 0.47 °C | -0.15 °C
13 | COc1cc(Cl)ccc1C1=CN(c2ccc(-c3ccccc3OC)cc2)C2=NCCCN12 | -0.95 °C | -1.01 °C
14 | O=C(NO)c1cnc(NC2(c3ccccc3)CC2)nc1 | -1.33 °C | 0.35 °C
15 | CCC1CCCCN1C(=O)n1ncc(C(O)(c2ccccc2)c2ccccc2)n1 (centres undefined) | -0.98 °C | -0.25 °C
16 | COc1cc(Nc2ncc(F)c(Nc3ccc4c(n3)NC(=O)C(C)(C)O4)n2)cc(OC)c1OC | -0.89 °C | –
17 | O=C(NO)c1ccc(CN(c2cnccn2)c2cnccn2)cc1 | -0.86 °C | -0.14 °C
18 | COc1cc2c(NCC3CCN(C)CC3)cc(-c3ccc(C)o3)nc2cc1OCCCN1CCCC1 | -0.88 °C | 0.16 °C
19 | Cn1nc(C(C)(C)C)cc1C(=O)NC(Cc1cccc(Cl)c1)C(=O)NCC#N (centres undefined) | 2.3 °C | 0.05 °C
20 | CC(=O)OCCN1C(=O)c2c(C)nc3ccc(S(=O)(=O)N4CCOCC4)cc3c2C1=O | -0.89 °C | 0.68 °C
21 | CC1(C)CC[C@]2(C(=O)O)CC[C@]3(C)C(=CC[C@@H]4[C@@]5(C)C=C(O)C(=O)C(C)(C)[C@@H]5CC[C@]43C)[C@@H]2C1 | 2.32 °C | 0 °C
22 | C[C@@H]1OC(=O)NN=C1c1ccc(-c2ccc(F)cc2)c(C(F)(F)F)c1 | 0.4 °C | -0.74 °C

Row | SMILES | ΔTm (Peregrin (Homo sapiens)) | ΔTm [1]
23 | COc1cn(-c2ccc(-n3cccn3)cc2F)nc(-c2ccnn2-c2ccccc2)c1=O | 1.13 °C | 0.54 °C
24 | COc1ccc(C2C(C#N)=C(N)OC3=C2C(=O)CC(c2cccc4ccccc24)C3)cc1 (centres undefined) | 0.11 °C | -0.92 °C
25 | COCc1nc2cnc3cc(-c4c(C)noc4C)c(OC[C@H]4CCNC4)cc3c2n1[C@H](C)c1ccccc1 | 0.65 °C | 0.01 °C
26 | CC(=O)N[C@@H](C)C(=O)N[C@@H](CCC(=O)O)C(=O)N[C@H](C(=O)N[C@@H](C=O)CC(=O)O)C(C)C | -1.79 °C | 0.19 °C
27 | CN(C)CCCCC(=O)Nc1ccc(NC(=S)NC(=O)c2ccc(C(C)(C)C)cc2)cc1 | -0.35 °C | -0.03 °C
28 | N[C@@H](CCCCB(O)O)C(=O)O | 0.2 °C | 0.29 °C
29 | Cn1c(=O)cc(N2CCC[C@@H](N)C2)n(Cc2cc(F)ccc2C#N)c1=O | 0.76 °C | 0.72 °C
30 | NC(=O)c1cccc(NC(=O)CCC(=O)NCCc2cn(CCNS(=O)(=O)c3cccc(C(=O)O)c3)nn2)c1 | -1.38 °C | -1.91 °C
31 | N#C[C@@H]1CCCN1C(=O)[C@@H]1CCCN1C(=O)CCCc1ccccc1 | -1.55 °C | 0.84 °C
32 | CCC(=O)N[C@H]1CC[C@@H](C(=O)N(C)c2ccc(-c3nc4ccccc4o3)cc2)C1 | 0.27 °C | 0.23 °C
33 | O=C(Cc1ccccc1)c1cc(O)c(O)c([N+](=O)[O-])c1 | 0.33 °C | 0.57 °C
34 | CC1(NC(=O)COc2cccc(-c3nc4c(c(Nc5ccc(-c6cn[nH]c6)cc5)n3)CN(C3CCC3)CC4)c2)CC1 | 1.53 °C | -0.36 °C
35 | Cc1ncccc1-c1cnc(NCc2c(F)ccc3c2CCO3)n2cnnc12 | -0.54 °C | -0.09 °C
36 | O=C1c2ccccc2C(=O)c2oc(-c3ccccc3)nc21 | 1.63 °C | -1.3 °C
37 | COc1cccc(Nc2c(C(N)=O)cnc3c(C)cc(S(=O)(=O)c4cccc(C(=O)N(C)C)c4)cc23)c1 | -1.59 °C | -0.11 °C
38 | CN(C)NC(=O)CCC(=O)O | 0.25 °C | 0.18 °C
39 | C#CCNC(=O)[C@H](CO)NC(=O)[C@H](CCCCN(CC)CC)NC(=O)[C@H](NC(=O)[C@@H](NC(=O)c1ccc(Oc2ccccc2)cc1)C1CCCC1)[C@@H](C)CC ({Benzoyl(4-OPh)}-[Gly(cPent)][d(aIle)][Lys(Et2)]S-{NH(propargyl)}) | -0.64 °C | -1.33 °C
40 | COc1cc2c(NC3CCN(C4CCCCC4)CC3)nc(N3CCCN(C(C)C)CC3)nc2cc1OCCCN1CCCCC1 | -1.05 °C | 0.34 °C
41 | COc1cccc(-c2nccc3c2CN(c2ccccc2)C3=O)c1 | -0.63 °C | 0.77 °C
42 | Cc1cc(C)c(CNC(=O)c2cc(Cl)c3c(c2C)O[C@@](C)([C@H]2CC[C@H](N(C)C)CC2)O3)c(=O)[nH]1 | -0.71 °C | -1.83 °C
43 | O=C(NCCCc1ccccc1)c1cccc(-c2cc(O)c3ncccc3c2)c1 | 3.29 °C | 0.19 °C
44 | Nc1cc(F)ccc1NC(=O)c1ccc(CNC(=O)/C=C/c2cccnc2)cc1 | -0.89 °C | 0.58 °C

Row | SMILES | ΔTm (Peregrin (Homo sapiens)) | ΔTm [1]
45 | Cc1cccc(Nc2ccncc2S(=O)(=O)NC(=O)NC(C)C)c1 | 0.33 °C | -0.51 °C
46 | CCN(CC)c1ccc(C2=NNC(=O)C[C@H]2C)cc1[N+](=O)[O-] | 1.09 °C | 0.2 °C
47 | COc1ncc(C)c(-c2ccc3c(c2)[nH]c(=O)c2cnn([C@H]4CCOC4)c23)c1C | 0.86 °C | -0.58 °C
48 | O=CC1CCCN1C(=O)C1CCCN1C(=O)OCc1ccccc1 (stereo not drawn) (Cbz-Pro-Pro-aldehyde; configuration not given here) | -0.94 °C | 0.49 °C
49 | O=c1[nH]ccc2cc(F)c(NS(=O)(=O)c3ccc(N4CC[C@@H](O)C4)s3)cc12 | -1.14 °C | 0.54 °C
50 | CC(=Cc1cc(C)ccc1C=C(C)C(=O)NC(=N)N)C(=O)N=C(N)N | -1.11 °C | -0.04 °C
51 | CCOc1ccc2nc(-c3cccc(OCC(=O)NC(C)C)c3)nc(Nc3ccc(-c4cn[nH]c4)cc3)c2c1 | 2.82 °C | -0.59 °C
52 | O=C1C(P(=O)(O)O)CC(O)N1O (centres undefined) | 1.52 °C | -0.05 °C
53 | CCn1c(=O)c(C)cn(Cc2nnc(-c3ccc(F)c(OC)c3F)s2)c1=O | -0.72 °C | 0.75 °C
54 | O=C(NCC(=O)N1CCCCC1)Nc1ccc2nnsc2c1 | -1.05 °C | 0.59 °C
55 | O=C(O)/C(S)=C/c1c[nH]c2ccc(F)cc12 | -0.77 °C | 0.66 °C
56 | C[C@]1(c2nc3c(C(N)=O)cccc3[nH]2)CCCN1 | 1.27 °C | -0.4 °C
57 | C[C@]12O[C@H](C[C@]1(O)CO)n1c3ccccc3c3c4c(c5c6ccccc6n2c5c31)CNC4=O | -0.7 °C | 5.19 °C
58 | Cc1nc(Nc2ncc(C(=O)Nc3c(C)cccc3Cl)s2)cc(N2CCN(CCO)CC2)n1 | -0.2 °C | 4.7 °C
59 | CC(C)(OCc1cc(-c2cccc(OC3CC3)c2)n(-c2ccccc2Cl)n1)C(=O)O | 0.83 °C | -0.52 °C
60 | O=c1[nH]c(Oc2cnn(Cc3ccccc3)c2)nc2cnccc12 | 3.09 °C | -0.24 °C
61 | CCc1c(C)nc(-c2ccc(Cl)s2)nc1Nc1ccc(CC(=O)O)cc1 | 1.24 °C | -0.19 °C
62 | COc1ccccc1C(=O)Nc1cc2c(cc1N1CCNC[C@H]1C)n(C)c(=O)n2C | – | 0.68 °C
63 | CN1CCN(c2ccc3nc(-c4c(N)c5c(F)cccc5[nH]c4=O)[nH]c3c2)CC1 | -0.73 °C | –
64 | COc1ccccc1C(=O)Nc1cc2c(cc1N1CCCCC1)n(C)c(=O)n2C | – | 0.52 °C
